As usually defined, the IC50 is the concentration that inhibits the measured activity by half.

Data set [1] relates to L1210 line (mouse leukemic line). Briefly: Inhibition of growth of L1210 line (tritiated thymidine incorporation, 48 hours). The settings on record: L1210 cells, read-out: IC50 (50% growth inhibition). It counts as cell-based. Here is the method:
The growth of this mouse leukemic line is assessed by the capacity of the cells to incorporate tritiated thymidine. The degree of incorporation is measured 48 hours after the introduction of the test compounds into the culture medium.

A short description of data set [2]: Detection of an excess-vitamin A type toxicity in vivo.
Excerpt: (§1) This can be reproduced experimentally in animals.
(§2) The selected treatment protocol is a daily injection for five days, repeated a second time after an interval of two days.
Data set [3] deals with humeri of rat fetuses. In words: Toxicity on the humeri of rat fetuses explanted in vitro (proteoglycan release). It counts as cell-based. The settings on record: 7 days of culture in vitro, in words. The protocol: EXAMPLE 37: STUDY OF THE TOXICITY ON THE HUMERI OF RAT FETUSES OF GESTATIONAL AGE 21 DAYS
The toxicity of retinoids can be evaluated on humeri of rat fetuses of gestational age 21 days.
The toxicity of retinoids can be evaluated on humeri of rat fetuses explanted in vitro as described by KISTLER.
Retinoid activity results in a release of proteoglycans from the bony substance. This release is assessed after 7 days of culture in vitro by assaying the concentration of proteoglycans in the medium, by the method of WITHEMAN (1973).

For data set [4] the following is noted: in vivo.
Excerpt: as §1, §2
Setting [5] is: daily injection for five days, repeated after two days interval.

Where two headings read alike, the source gives them in different places.

On to `CCOC(=O)/C=C(C)/C=C/C=C(C)/C=C/c1c(C)cc(OC)c(C)c1C` [Etretinate, etretinate], for which the IC50 in data set [1] came out at 80 µM. Besides, in data set [2] (setting [5]), the alopecia result was “appearance of alopecia”, the “fracture / bone weakening (radiography)” value is given as “bone weakening” and the weight result is “rapid weight loss”. Further, the “excess-vitamin A type toxicity” value in data set [2] (overall, in words) was “rapid weight loss, alopecia and bone weakening”.

Take `CC(=Cc1ccccc1)C1=Cc2ccccc2OC1` [Example 1, 3-(1-PHENYLPROPEN-2-YL)-2H-CHROMENE]: in data set [1], the IC50 is less than 1 µM.

Turning to `CC(=Cc1ccccc1)C1=Cc2cc(Cl)cc(C)c2OC1` [Example 3], the IC50 in data set [1] was 20 µM.

On to `COC(=O)c1ccc(/C=C(\C)C2=Cc3ccccc3OC2)cc1` [Example 6, methyl 4-[2-(2H-chromen-3-yl)propenyl]benzoate], for which, in data set [1], the IC50 was determined as 25 µM.

With `COC(=O)c1ccc(/C=C(\C)C2=Cc3cc(Cl)cc(Cl)c3OC2)cc1` [Example 8], the IC50 in data set [1] was 25 µM. The “toxicity on the humeri” value in data set [3] is reported as “complete absence of toxicity”.

For the molecule `CCOC(=O)c1ccc(/C=C(\C)C2=Cc3ccccc3OC2)cc1` [Example 10, ethyl 4-[2-(2H-chromen-3-yl)propenyl]benzoate], the IC50 in data set [1] worked out at 18 µM.

In the case of `CCNC(=O)c1ccc(/C=C(\C)C2=Cc3ccccc3OC2)cc1` [Example 13, N-ethyl-4-[2-(2H-chromen-3-yl)propenyl]benzamide], the IC50 in data set [1] is 3.8 µM.

With `CCS(=O)(=O)c1ccc(/C=C(\C)C2=Cc3ccccc3OC2)cc1` [Example 16, ethyl 4-[2-(2H-chromen-3-yl)propenyl]phenyl sulfone], the IC50 in data set [1] was found to be 3.8 µM.

As to `CCS(=O)(=O)c1ccc(C=C(C)C2=Cc3cc(Cl)cc(C)c3OC2)cc1` [Example 17], the IC50 in data set [1] worked out at 7.5 µM.

Turning to `CCS(=O)(=O)c1ccc(C=C(C)C2=Cc3cc(C)cc(C)c3OC2)cc1` [Example 18], the IC50 in data set [1] worked out at 6 µM.

As to `CCS(=O)(=O)c1ccc(/C=C(\C)C2=Cc3cc(OC)ccc3OC2)cc1` [Example 24, ethyl 4-[2-(6-methoxy-2H-chromen-3-yl)propenyl]phenyl sulfone], in data set [1], the IC50 amounted to 8 µM.

On to `CC1=C(/C=C/C(C)=C/C=C/C(C)=C/C(=O)O)C(C)(C)CCC1` [retinoic acid], for which, in data set [4], the alopecia entry is “appearance of alopecia” and the weight result is on record as “rapid weight loss”.

(Values after US4975455A, “New heteroarotinoid compounds” (Adir et Cie, priority 1988, dated 1990).)
